Measured values: patent US10315992B2, “Tetracyline compounds” (Tetraphase Pharmaceuticals, Inc., priority 2012, dated 2019)
Converted amounts (≈) assume the structure as drawn. Where two headings read alike, the source gives them in different places.

Legend:
[1] = system: Staphylococcus aureus SA101 (ATCC 29213, MSSA); test: MIC assay, SA101; format: cell-based
[2] = system: Staphylococcus epidermidis SE164 (ATCC 12228); test: MIC assay, SE164; format: cell-based; conditions: ATCC12228, read-out: MIC SE 164 12228
[3] = system: Enterococcus faecium EF404 (blood isolate, tet(M)); test: MIC assay, EF404; format: cell-based
[4] = system: Streptococcus pneumoniae SP106 (ATCC 49619); test: MIC assay, SP106; format: cell-based
[5] = system: Streptococcus pneumoniae SP160 (tet(M)); test: MIC assay, SP160; format: cell-based
[6] = system: Streptococcus pyogenes SP312 (2009 clinical isolate, tet(M)); test: MIC assay, SP312; format: cell-based
[7] = system: Proteus mirabilis PM112 (ATCC 35659); test: MIC assay, PM112; format: cell-based
[8] = system: Proteus mirabilis PM385 (urine ESBL+ isolate); test: MIC assay, PM385; format: cell-based
[9] = system: Pseudomonas aeruginosa PA556 (multiple-Mex efflux pump knockout strain); test: microbe, parasite or virus in culture; format: cell-based
[10] = system: Pseudomonas aeruginosa PA673 (2009 urine isolate); test: MIC assay, PA673; format: cell-based
[11] = system: Pseudomonas aeruginosa PA669 (2009 tracheal aspirate isolate); test: MIC assay, PA669; format: cell-based
[12] = system: Pseudomonas aeruginosa PA693 (2009 corneal scraping isolate); test: MIC assay, PA693; format: cell-based
[13] = system: Pseudomonas aeruginosa PA1145 (strain used in murine pneumonia model); test: MIC assay, PA1145; format: cell-based
[14] = system: Klebsiella pneumoniae KP109 (ATCC 13883); test: MIC assay, KP109; conditions: K. pneumoniae ATCC 13883; Table 4
PA 689 = test: MIC assay, PA689; conditions: Pseudomonas aeruginosa, read-out: MIC PA 689
Protocol: Minimum Inhibitory Concentration (MIC) Assay
MICs were determined according to the Clinical and Laboratory Standards Institute (CLSI) guidances (e.g., CLSI. Performance standards for antimicrobial susceptibility testing; nineteenth information supplement. CLSI document M100-S19, CLSI, 940 West Valley Road, Suite 1400, Wayne, Pa. 19087-1898, USA, 2009). Briefly, frozen bacterial strains were thawed and subcultured onto Mueller Hinton Broth (MHB) or other appropriate media (Streptococcus requires blood and Haemophilus requires hemin and NAD). Following incubation overnight, the strains were subcultured onto Mueller Hinton Agar and again incubated overnight. […] Isolated colonies were selected to prepare a starting inoculum equivalent to a 0.5 McFarland standard. […] Test compounds were prepared by dilution in sterile water to a final concentration of 5.128 mg/mL. Antibiotics (stored frozen, thawed and used within 3 hours of thawing) and compounds were further diluted to the desired working concentrations.
The assays were run as follows. Fifty μL of MHB was added to wells 2-12 of a 96-well plate. One hundred μL of appropriately diluted antibiotics was added to well 1. Fifty μL of antibiotics was removed from well 1 and added to well 2 and the contents of well 2 mixed by pipetting up and down five times. Fifty μL of the mixture in well 2 was removed and added to well 3 and mixed as above. Serial dilutions were continued in the same manner through well 12. Fifty μL was removed from well 12 so that all contained 50 μL. Fifty μL of the working inoculum was then added to all test wells. A growth control well was prepared by adding 50 μL of working inoculum and 50 μL of MHB to an empty well. The plates were then incubated at 37° C. overnight, removed from the incubator and each well was read on a plate reading mirror. The lowest concentration (MIC) of test compound that inhibited the growth of the bacteria was recorded.

[15] = system: Burkholderia cenocepacia BC240 (cystic fibrosis isolate, MDR); test: MIC assay, BC240; format: cell-based; conditions: Burkholderia cenocepacia, control compounds
[16] = system: Klebsiella pneumoniae KP109 (ATCC 13883)
[17] = read-out: MIC SA 101 292 13, S. aureus ATCC 29213, MSSA, Table 6
[18] = read-out: MIC SA 101 29213, S. aureus ATCC 29213, MSSA, Table 4
[19] = read-out: MIC SA 101 29213, S. aureus ATCC 29213, MSSA, Table 5
[20] = read-out: MIC SA 101 29213, S. aureus ATCC 29213, MSSA, Table 7
[21] = read-out: MIC SA 101 29213, control compounds
[22] = read-out: MIC SA 101 29213, control compounds, numeric
[23] = ATCC49619, read-out: MIC SP 106 49619
[24] = read-out: MIC SP 160 tet M, S. pneumoniae tet(M), Table 6
[25] = read-out: MIC SP 160 tetM, S. pneumoniae tet(M), Table 4
[26] = read-out: MIC SP 160 tetM, S. pneumoniae tet(M), Table 5
[27] = read-out: MIC SP 160 tetM, S. pneumoniae tet(M), Table 7
[28] = read-out: MIC SP 160 tetM, control compounds
[29] = read-out: MIC SP 160 tetM, control compounds, numeric
[30] = ATCC35659, read-out: MIC PM 112 35659

CN(C)[C@@H]1C(O)=C(C(N)=O)C(=O)[C@@]2(O)C(O)=C3C(=O)c4c(O)cccc4C[C@H]3C[C@@H]12 [Sancycline, sancycline]
MIC [1, 17]: 0.5 µg/mL (≈ 1.21 µM) | MIC [1, 18]: 0.5 µg/mL (≈ 1.21 µM) | MIC [1, 19]: 0.5 µg/mL (≈ 1.21 µM) | MIC [1, 20]: 0.5 µg/mL (≈ 1.21 µM) | MIC [1, 21]: 0.5 µg/mL (≈ 1.21 µM) | MIC [1, 22]: 0.5 µg/mL (≈ 1.21 µM) | MIC [2]: 4 µg/mL (≈ 9.65 µM) | MIC ([3]; read-out: MIC EF 404 tet M): 4 µg/mL (≈ 9.65 µM) | MIC ([3]; read-out: MIC EF 404 tetM): 4 µg/mL (≈ 9.65 µM) | MIC [4, 23]: 0.25 µg/mL (≈ 0.603 µM) | MIC [5, 24]: 8 µg/mL (≈ 19.3 µM) | MIC [5, 25]: 8 µg/mL (≈ 19.3 µM) | MIC [5, 26]: 8 µg/mL (≈ 19.3 µM) | MIC [5, 27]: 8 µg/mL (≈ 19.3 µM) | MIC [5, 28]: 8 µg/mL (≈ 19.3 µM) | MIC [5, 29]: 8 µg/mL (≈ 19.3 µM) | MIC ([6]; read-out: MIC SP 312): 4 µg/mL (≈ 9.65 µM) | MIC ([6]; read-out: MIC SP 312 tet M): 4 µg/mL (≈ 9.65 µM) | MIC [7, 30]: 4 µg/mL (≈ 9.65 µM) | MIC ([8]; read-out: MIC PM 385): 8 µg/mL (≈ 19.3 µM) | MIC ([8]; read-out: MIC PM 385 CTX-M15): 8 µg/mL (≈ 19.3 µM) | MIC [9]: 1 µg/mL (≈ 2.41 µM) | MIC ([9]; read-out: MIC PA 556): 1 µg/mL (≈ 2.41 µM) | MIC [10]: 32 µg/mL (≈ 77.2 µM) | MIC ([10]; read-out: MIC PA 673): 33 µg/mL (≈ 79.6 µM) | MIC [11]: 33 µg/mL (≈ 79.6 µM) | MIC ([11]; read-out: MIC PA 669): 33 µg/mL (≈ 79.6 µM) | MIC [12]: 33 µg/mL (≈ 79.6 µM) | MIC ([12]; read-out: MIC PA 693): 33 µg/mL (≈ 79.6 µM) | MIC [13]: 33 µg/mL (≈ 79.6 µM) | MIC ([13]; read-out: MIC PA 1145): 32 µg/mL (≈ 77.2 µM) | MIC KP 109 13883 [14]: 8 µg/mL (≈ 19.3 µM) | MIC (PA 689): 16 µg/mL (≈ 38.6 µM)

CN(C)c1ccc(O)c2c1C[C@H]1C[C@H]3[C@H](N(C)C)C(O)=C(C(N)=O)C(=O)[C@@]3(O)C(O)=C1C2=O [Minocycline, minocycline]
MIC ([1]; S. aureus ATCC 29213, MSSA, Table 4, read-out: MIC SA 101 29213): 0.063 µg/mL (≈ 0.138 µM) | MIC ([1]; S. aureus ATCC 29213, MSSA, Table 5, read-out: MIC SA 101 29213): 0.0625 µg/mL (≈ 0.137 µM) | MIC ([1]; S. aureus ATCC 29213, MSSA, Table 6, read-out: MIC SA 101 292 13): 0.063 µg/mL (≈ 0.138 µM) | MIC ([1]; S. aureus ATCC 29213, MSSA, Table 7, read-out: MIC SA 101 29213): 0.06 µg/mL (≈ 0.131 µM) | MIC ([1]; control compounds, numeric, read-out: MIC SA 101 29213): 0.06 µg/mL (≈ 0.131 µM) | MIC ([1]; control compounds, read-out: MIC SA 101 29213): 0.06 µg/mL (≈ 0.131 µM) | MIC ([3]; E. faecium tet(M), Table 6, read-out: MIC EF 404 tet M): 8 µg/mL (≈ 17.5 µM) | MIC ([3]; control compounds, numeric, read-out: MIC EF 404 tetM): 8 µg/mL (≈ 17.5 µM) | MIC ([4]; ATCC49619, S. pneumoniae ATCC 49619, Table 4, read-out: MIC SP 106 49619): 0.015 µg/mL (≈ 0.0328 µM) | MIC ([5]; S. pneumoniae tet(M), Table 6, read-out: MIC SP 160 tet M): 2 µg/mL (≈ 4.37 µM) | MIC ([5]; control compounds, numeric, read-out: MIC SP 160 tetM): 2 µg/mL (≈ 4.37 µM) | MIC ([6]; S. pyogenes tet(M), Table 5, read-out: MIC SP 312): 16 µg/mL (≈ 35 µM) | MIC ([6]; S. pyogenes tet(M), Table 6, read-out: MIC SP 312 tet M): 16 µg/mL (≈ 35 µM) | MIC ([7]; ATCC35659, P. mirabilis ATCC 35659, Table 5, read-out: MIC PM 112 35659): 8 µg/mL (≈ 17.5 µM) | MIC ([8]; P. mirabilis ESBL+, Table 6, read-out: MIC PM 385): 16 µg/mL (≈ 35 µM) | MIC ([8]; control compounds, numeric, read-out: MIC PM 385 CTX-M15): 16 µg/mL (≈ 35 µM) | MIC ([10]; control compounds, c3, strain PA673 inferred, read-out: MIC): 32 µg/mL (≈ 69.9 µM) | MIC ([10]; control compounds, numeric, read-out: MIC PA 673): 33 µg/mL (≈ 72.1 µM) | MIC ([11]; control compounds, c4, strain PA669 inferred, read-out: MIC): 33 µg/mL (≈ 72.1 µM) | MIC ([11]; control compounds, numeric, read-out: MIC PA 669): 33 µg/mL (≈ 72.1 µM) | MIC ([12]; control compounds, c5, strain PA693 inferred, read-out: MIC): 33 µg/mL (≈ 72.1 µM) | MIC ([12]; control compounds, numeric, read-out: MIC PA 693): 33 µg/mL (≈ 72.1 µM) | MIC ([13]; control compounds, c6, strain PA1145 inferred, read-out: MIC): 33 µg/mL (≈ 72.1 µM) | MIC ([13]; control compounds, numeric, read-out: MIC PA 1145): 32 µg/mL (≈ 69.9 µM) | MIC ([15]; c10, strain BC240 inferred, read-out: MIC): 8 µg/mL (≈ 17.5 µM) | MIC ([15]; numeric, read-out: MIC BC 240): 8 µg/mL (≈ 17.5 µM) | MIC KP 109 13883 [16]: 1 µg/mL (≈ 2.19 µM) | MIC (PA 689): 8 µg/mL (≈ 17.5 µM)

CN(C)c1cc(NC(=O)CNC(C)(C)C)c(O)c2c1C[C@H]1C[C@H]3[C@H](N(C)C)C(O)=C(C(N)=O)C(=O)[C@@]3(O)C(O)=C1C2=O [Tigecycline, tigecycline]
MIC [1, 17]: 0.063 µg/mL (≈ 0.108 µM) | MIC [1, 18]: 0.063 µg/mL (≈ 0.108 µM) | MIC [1, 19]: 0.0625 µg/mL (≈ 0.107 µM) | MIC [1, 20]: 0.06 µg/mL (≈ 0.102 µM) | MIC [1, 21]: 0.06 µg/mL (≈ 0.102 µM) | MIC [1, 22]: 0.06 µg/mL (≈ 0.102 µM) | MIC [2]: 0.125 µg/mL (≈ 0.213 µM) | MIC ([3]; read-out: MIC EF 404 tet M): 0.031 µg/mL (≈ 0.0529 µM) | MIC ([3]; read-out: MIC EF 404 tetM): 0.03 µg/mL (≈ 0.0512 µM) | MIC [4, 23]: 0.016 µg/mL (≈ 0.0273 µM) | MIC [5, 24]: 0.015 µg/mL (≈ 0.0256 µM) | MIC [5, 25]: 0.016 µg/mL (≈ 0.0273 µM) | MIC [5, 26]: 0.02 µg/mL (≈ 0.0341 µM) | MIC [5, 27]: 0.02 µg/mL (≈ 0.0341 µM) | MIC [5, 28]: 0.02 µg/mL (≈ 0.0341 µM) | MIC [5, 29]: 0.02 µg/mL (≈ 0.0341 µM) | MIC ([6]; read-out: MIC SP 312): 0.02 µg/mL (≈ 0.0341 µM) | MIC ([6]; read-out: MIC SP 312 tet M): 0.015 µg/mL (≈ 0.0256 µM) | MIC [7, 30]: 1 µg/mL (≈ 1.71 µM) | MIC ([8]; read-out: MIC PM 385): 4 µg/mL (≈ 6.83 µM) | MIC ([8]; read-out: MIC PM 385 CTX-M15): 4 µg/mL (≈ 6.83 µM) | MIC [9]: 0.25 µg/mL (≈ 0.427 µM) | MIC ([9]; read-out: MIC PA 556): 0.25 µg/mL (≈ 0.427 µM) | MIC [10]: 16 µg/mL (≈ 27.3 µM) | MIC ([10]; read-out: MIC PA 673): 32 µg/mL (≈ 54.6 µM) | MIC [11]: 32 µg/mL (≈ 54.6 µM) | MIC ([11]; read-out: MIC PA 669): 32 µg/mL (≈ 54.6 µM) | MIC [12]: 32 µg/mL (≈ 54.6 µM) | MIC ([12]; read-out: MIC PA 693): 33 µg/mL (≈ 56.3 µM) | MIC [13]: 33 µg/mL (≈ 56.3 µM) | MIC ([13]; read-out: MIC PA 1145): 16 µg/mL (≈ 27.3 µM) | MIC ([13]; read-out: MIC PA 1145 Vivi- source): 16 µg/mL (≈ 27.3 µM) | MIC KP 109 13883 [14]: 0.125 µg/mL (≈ 0.213 µM) | MIC (PA 689): 1 µg/mL (≈ 1.71 µM)
